For one assay, the system named is Bacillus subtilis. Nature of the assay: Kirby-Bauer disk diffusion antibacterial assay. The assay is classed as cell-based. The following applies: 6 mm disc, extract 0.5 mg, chloramphenicol 0.025 mg, 24 h 37°C. The protocol:
(§1) The Kirby-Bauer disk diffusion method ([31]) was used for the evaluation of the antibacterial activity of MExt. Four test organisms, viz.; Salmonella typhimurium (ATTC13311), Escherichia coli (MTCC 739), Bacillus subtilis (MTTCC 121), Staphylococcus aureus (ATCC 1026), were grown in Mueller-Hinton broth (MHB) at 37°C and 160 rpm and brought to its exponential phase. The sample was prepared by dissolving the MExt in 50% DMSO (at 25 mg/mL w/v concentration) and filtering through a (0.22 μm) syringe filter. Hundred microliter of each bacterial strain, equivalent to 0.5 McFarland turbidity were spread over sterile Mueller-Hinton agar (MHA) plate using a sterile swab. A 20 μL sample (0.5 mg) impregnated in a 6 mm sterile disc was seeded on the freshly spread MHA plates and incubated for 24 h at 37°C. Chloramphenicol 0.025 mg was used as a positive control. One reagent control containing the buffer and solvent used was also included in the experiment. The zone of inhibition was recorded using a Vernier caliper.

The test system of the next assay is Escherichia coli. Nature of the assay: Kirby-Bauer disk diffusion antibacterial assay. The assay is classed as cell-based. The following applies: 6 mm disc, extract 0.5 mg, chloramphenicol 0.025 mg, 24 h 37°C, read-out: Inhibition zone, Eschericia coli. The protocol:
as §1
Background: Agar diffusion results depend on both activity and mobility in agar.

The subject of the next assay is Staphylococcus aureus. Nature of the assay: Kirby-Bauer disk diffusion antibacterial assay. Type of assay: cell-based. The following applies: 6 mm disc, extract 0.5 mg, chloramphenicol 0.025 mg, 24 h 37°C. The protocol:
as §1

The subject of another assay is Salmonella typhi. Nature of the assay: Kirby-Bauer disk diffusion antibacterial assay. Type of assay: cell-based. The following applies: Salmonella enterica, 24 h, read-out: Inhibition zone, Salmonella typhi.
Assay [1] can be described thus: DPPH radical scavenging assay. Type of assay: biochemical. Particulars: 30 min in the dark, 517 nm. The protocol:
0.1 mL of each of the five different concentrations of the extract was mixed with 1.9 mL DPPH reagent prepared in methanol (A517 = 1.1 + 0.01). The mixture was incubated for 30 min in the dark and then read at 517 nm. The radical scavenging activity (RSA) of each extract was calculated as follows ([26]).
RSA%=(Acontrol−Asample)/AcontrolX100%
From the RSA%, 50 inhibitory concentration (IC50) was calculated and expressed in μg/mL.
For orientation: DPPH is a stable violet radical that fades when it is reduced.

Assay [2] can be described thus: ABTS radical scavenging assay. Type of assay: biochemical. The following applies: 30 min in the dark, 734 nm. The protocol:
ABTS radical scavenging activity was performed as described by Singh et al. ([26]). The reaction mixture containing 0.1 mL of extract was mixed with 1.9 mL ABTS radical ([…] = 1.0 ± 0.01) then incubated for 30 min in the dark, and the absorbance was read at 734 nm. RSA and IC50 of the extract were calculated as described above.

The test system of assay [3] is HeLa (human cervical cancer cell line). Nature of the assay: In vitro cytotoxicity, Sulforhodamine B (SRB) assay. The assay is classed as cell-based. Particulars: 48 h, read-out: IC50 against HeLa cells. The protocol: The cytotoxic activity of MExt was investigated using Sulforhodamine B colorimetric (SRB) assay against HeLa (human cervical cancer cell line). The cell was maintained in a Dulbecco’s Modified Eagle Medium (DMEM). […] The monolayer cells were then fixed with 10% Trichloroacetic acid (TCA) for 1 h at […] followed by washing with water. After drying, the cell plates were stained with SRB for 30 min and then washed with 1% acetic acid. The SRB dye bound to the protein was then dissolved by adding 10 mM Tris base (pH 10.5). The SRB dye released was quantified by taking absorbance at 510 nm in Varioskan Flash Multimode Reader (Thermo Fisher Scientific, United States) ([32]).
For orientation: The SRB assay estimates cell density from bound dye.

The structures appear in SMILES notation. Where only a bound is given, the exact number is not on record here.

Broadly, the IC50 is the concentration at which inhibition is half-maximal.

Regarding `O=C(N[C@H](CO)[C@H](O)c1ccc([N+](=O)[O-])cc1)C(Cl)Cl` [Chloramphenicol], the zone of inhibition at 25 µg/disc was 30.2 ± 1.6 mm in the assay with Bacillus subtilis, 28 ± 2.2 mm in the assay on Escherichia coli, 29 ± 1 mm in the assay with Staphylococcus aureus and 30 ± 2 mm with Salmonella typhi.
On to `O=C1O[C@H]([C@@H](O)CO)C(O)=C1O` [Ascorbic acid], for which the “DPPH (IC50)” value in assay [1] was found to be 3 µg/mL; in assay [1] (listed as Vitamin C) it was 5.40 ± 0.30 µg/mL. Besides, the entries for the “ABTS (IC50)” value in assay [2] and in assay [2] (listed as Vitamin C) were 5.4 µg/mL and 3.00 ± 0.40 µg/mL, respectively.
With `COc1cccc2c1C(=O)c1c(O)c3c(c(O)c1C2=O)C[C@@](O)(C(=O)CO)C[C@@H]3O[C@H]1C[C@H](N)[C@H](O)[C@H](C)O1` [Doxorubicin], the IC50 in assay [3] was less than 5 µg/mL.

These data come from paper PMC10277484, “Bioactivity and nutritional quality of nutgall (Rhus semialata Murray), an underutilized fruit of Manipur” (Frontiers in Nutrition, 2023).
